We go through six compounds from publication PMC10544018 (Journal of Medicinal Chemistry, 2023).

As usually defined, the Kd is the free concentration of one partner at which half of the binding sites on the other are occupied at equilibrium, for simple one-to-one binding. As a reminder, the IC50 is the point on the concentration scale where inhibition reaches its midpoint. Broadly, the fraction unbound is the share of the substance not bound to proteins or other matrix. High values mean much free substance, low ones little free substance.

Molecules are shown by their SMILES.

The target of one series is T1, VCB protein (Homo sapiens, UniProt P40337).
T1 construct: A plasmid containing pVHL54–213 with an N-terminal His6 tag; His6 (N, cleaved yes); made in house; host or cells: Escherichia coli BL21 (DE3)
Nature of the series: Competitive fluorescence polarization (FP) binding assay, displacement of FAM-labeled HIF-1α peptide. Particulars: for Kd: dissociation constant, determined by FP, mean ± S.E.M., back-calculated from IC50; for IC50: mean IC50 values obtained from the FP assay, read-out: IC50 ± S.E.M, FP assay. Here is the method:
Binding of a ligand to the HIF binding site of VHL displaces a fluorescein-labeled, 19-mer HIF-1α oligopeptide, leading to a change in polarization of emitted light upon excitation of the competing fluorescent probe.
All components were dissolved from stock solutions using 100 mM Bis–Tris, 100 mM NaCl, 1 mM DTT, pH 7.0, to yield a final assay volume of 15 μL. DMSO was added as appropriate to ensure a final concentration of 2% (v/v). Control wells containing VCB and JC9 with no compound (zero displacement), or JC9, in the absence of protein (maximum displacement) were also included to allow for normalization. Percentage displacement values were obtained by normalization of controls and were plotted against log[compound]. The IC50 values were determined for each titration using non-linear regression analysis with Prism GraphPad (Table S1). Dissociation constants Kd for the compound–VCB interaction were back-calculated from the measured IC50 values by using a displacement binding model as described.[16],[64]

The next series concerns the target human serum albumin (Homo sapiens, UniProt P02768). Nature of the series: PPB studies on HSA HPLC column. It counts as in vitro ADME. The settings on record: CHIRALPAK HSA HPLC column (human serum albumin); experimentally determined percentage of the compound bound to human serum albumin. Here is the method: (§1) Both were experimentally obtained employing HPLC-based protocols.[39],[40] […] PPB values were determined in view of how they could impact future pharmacokinetic studies of compounds as VHL inhibitors, or once conjugated into bifunctional PROTACs, for which PPB can be a limiting factor.
PPB was estimated by correlating the logarithmic retention times of the analytes on a […] HSA 50 × 3 mm, 5 μm column with the literature-known % PPB values (converted into log K values) of the following drugs: warfarin, ketoprofen, budesonide, nizatidine, indomethacin, acetylsalicylic acid, carbamazepine, piroxicam, nicardipine, and cimetidine.[63] Samples were dissolved in MeCN/DMSO 9:1 to achieve a final concentration of 0.5 mg/mL. The mobile phase A was 50 mM ammonium acetate adjusted to pH 7.4 with 10% NaOH, while mobile phase B was iPrOH. […] After injecting 3 μL of the sample, a linear gradient from 100% A to 30% iPrOH in 5.4 min was applied. From 5.4 to 18 min, 30% iPrOH was kept, followed by switching back to 100% A in 1.0 min and a re-equilibration time of 6 min.

The target of the next series is T2, biotinylated VCB protein (Homo sapiens, UniProt P40337).
T2 construct: A plasmid containing pVHL54–213 with an N-terminal His6 tag; His6 (N, cleaved yes); made in house; host or cells: Escherichia coli BL21 (DE3)
Nature of the series: Surface plasmon resonance (SPR) direct binding assay. Particulars: dissociation constant, determined by SPR; mean ± S.E.M. from two independent repeats. Here is the method:
Biotinylated VCB protein was immobilized onto a streptavidin-functionalized sensor chip allowing real-time measurements of the changes in the refractive index upon binding of ligands to the protein.[20]
To perform SPR measurements, 10 mM stock solution of VHL inhibitors was diluted 100-fold in DMSO to achieve a 100 μM final stock concentration. The ligand stock solution was diluted in SPR buffer (20 mM HEPES, 150 mM NaCl, 1 mM TCEP, 0.005% Tween 20, pH 7.0) to obtain the final concentration of 2% (v/v) DMSO. […] The experiments were performed at 20 °C on a Biacore T100 (GE Healthcare, Biacore, Uppsala, Sweden) equipped with a streptavidin-functionalized sensor chip (Series S Sensor Chip SA, Cytiva). The system was flushed with running buffer (20 mM HEPES, 150 mM NaCl, 1 mM TCEP, 0.005% Tween 20, and 2% DMSO, pH 7.0). Biotinylated VCB protein (50 nM) was immobilized onto the sensor chip at 10 μL/min for using the automated wizard in the T200 control software to reach the required immobilization levels. The solutions were injected individually using 60 and 160 s association and dissociation times, respectively. Reference flow-cell response was subtracted from the sample response with immobilized VCB protein to correct for systematic noise and baseline drift. Data were solvent-corrected by an eight-point solvent correction, and the response from the blank injections was used to double-reference the binding data. For the determination of binding constants, processed kinetic data were fitted to a 1:1 interaction model using the Biacore Insight Evaluation Software (version 3.0.12.15655).
(In general: Surface plasmon resonance follows binding to a sensor surface in real time, without labels.)

Series [1] can be described thus: Log D7.4 measurement by chromatographic method. It counts as physicochemical. The settings on record: experimental distribution coefficient at pH 7.4; read-out: e log D7.4. Here is the method:
as §1
The determination of the log D7.4 values was performed by a chromatographic method as described previously.[41],[62] […] Subsequently, the mean retention times (n = 2) of the analytes were taken to calculate their log D7.4 values.

Consider `Cc1cc(-c2scnc2C)ccc1CNC(=O)[C@@H]1C[C@@H](O)CN1C(=O)[C@@H](NC(=O)C1(F)CC1)C(C)(C)C` [Compound 26, (2S,4R)-1-((S)-2-(1-Fluorocyclopropane-1-carboxamido)-3,3-dimethylbutanoyl)-4-hydroxy-N-(2-methyl-4-(4-methylthiazol-5-yl)benzyl)pyrrolidine-2-carboxamide], for which, at VCB protein, the dissociation constant Kd is 112 ± 29 nM and the 50% inhibitory concentration (IC50) turned out to be 426 ± 72 nM. In addition, the fraction unbound at 0.5 mg/mL at human serum albumin is 0.11. Further, the Kd at biotinylated VCB protein amounted to 41 ± 10 nM. Further, the chromatographic logD in series [1] came out at 2.2.

For `Cc1ncsc1-c1ccc(CNC(=O)[C@@H]2C[C@@H](O)CN2C(=O)[C@@H](NC(=O)C2(F)CC2)C(C)(C)C)cc1F` [Compound 27, (2S,4R)-N-(3-Fluoro-4-(4-methylthiazol-5-yl)benzyl)-1-((S)-2-(1-fluorocyclopropane-1-carboxamido)-3,3-dimethylbutanoyl)-4-hydroxypyrrolidine-2-carboxamide], the Kd on VCB protein was 162 ± 45 nM; at biotinylated VCB protein it was 66 ± 3 nM. Also, the IC50 at VCB protein was determined as 617 ± 117 nM. The compound also gave an unbound share (fraction unbound) at 0.5 mg/mL on human serum albumin of 0.12. Also, the chromatographic logD in series [1] was determined as 2.1.

Turning to `COc1cc(-c2scnc2C)c(F)cc1CNC(=O)[C@@H]1C[C@@H](O)CN1C(=O)[C@@H](NC(=O)C1(F)CC1)C(C)(C)C` [Compound 29, (2S,4R)-N-(5-Fluoro-2-methoxy-4-(4-methylthiazol-5-yl)benzyl)-1-((S)-2-(1-fluorocyclopropane-1-carboxamido)-3,3-dimethylbutanoyl)-4-hydroxypyrrolidine-2-carboxamide], the values for the Kd on VCB protein and at biotinylated VCB protein were 134 ± 35 nM and 34 ± 3 nM, respectively. Also, on VCB protein, the concentration for half-maximal inhibition (IC50) was determined as 528 ± 106 nM. On human serum albumin, this compound gave a fraction unbound at 0.5 mg/mL of 0.12. The chromatographic logD in series [1] is 2.2.

Consider `Cc1ncsc1-c1ccc([C@H](C)NC(=O)[C@@H]2C[C@@H](O)CN2C(=O)[C@@H](NC(=O)C2(F)CC2)C(C)(C)C)cc1F` [Compound 31, (2S,4R)-N-((S)-1-(3-Fluoro-4-(4-methylthiazol-5-yl)phenyl)ethyl)-1-((S)-2-(1-fluorocyclopropane-1-carboxamido)-3,3-dimethylbutanoyl)-4-hydroxypyrrolidine-2-carboxamide], for which, at VCB protein, the dissociation constant Kd is 73 ± 19 nM and the IC50 came to 291 ± 61 nM. This compound had a free fraction (fraction unbound) at 0.5 mg/mL on human serum albumin of 0.12. Moreover, the equilibrium dissociation constant (Kd) on biotinylated VCB protein worked out at 45 ± 6 nM. Further, the chromatographic logD in series [1] was determined as 2.3.

Regarding `Cc1cc(-c2scnc2C)c(F)cc1[C@H](C)NC(=O)[C@@H]1C[C@@H](O)CN1C(=O)[C@@H](NC(=O)C1(F)CC1)C(C)(C)C` [Compound 32, (2S,4R)-N-((S)-1-(5-Fluoro-2-methyl-4-(4-methylthiazol-5-yl)phenyl)ethyl)-1-((S)-2-(1-fluorocyclopropane-1-carboxamido)-3,3-dimethylbutanoyl)-4-hydroxypyrrolidine-2-carboxamide], on VCB protein, the Kd was 53 ± 7 nM and the IC50 worked out at 220 ± 33 nM. This compound had a fraction unbound at 0.5 mg/mL at human serum albumin of 0.11. Also, the dissociation constant Kd at biotinylated VCB protein came to 41 ± 1 nM. Also, in series [1], the chromatographic logD turned out to be 2.5.

In the case of `Cc1ncsc1-c1cc2c(cc1F)[C@@H](NC(=O)[C@@H]1C[C@@H](O)CN1C(=O)[C@@H](NC(=O)C1(F)CC1)C(C)(C)C)CCC2` [Compound 37, (2S,4R)-N-((S)-7-Fluoro-6-(4-methylthiazol-5-yl)-1,2,3,4-tetrahydronaphthalen-1-yl)-1-((S)-2-(1-fluorocyclopropane-1-carboxamido)-3,3-dimethylbutanoyl)-4-hydroxypyrrolidine-2-carboxamide], at VCB protein, the Kd is 1040 ± 240 nM and the 50% inhibitory concentration (IC50) is 4400 ± 1060 nM. The free fraction (fraction unbound) at 0.5 mg/mL on human serum albumin is 0.08. Besides, the chromatographic logD in series [1] worked out at 2.6.
